From patent US7829567B2, “Imino-indeno[1,2-c] quinoline derivatives, their preparation processes, and pharmaceutical compositions comprising the same” (Kaohsiung Medical University, priority 2007, dated 2010)
Where two headings read alike, the source gives them in different places.

Key:
Type in all cases: cell-based
[1] = tested on: hepatocellular carcinoma (SKHep1); test: In vitro anticancer assay (MTT), SKHep1; settings: 48 hrs, mean ± spread, read-out: Anti-proliferative evaluation IC50, SKHep1
Procedure: (§1) The resultant tetrazolium salt was then dissolved by the addition of dimethyl sulfoxide. Color was measured spectrophotometrically in a microtiter plate reader at 570 nm and used as a relative measure of viable cell number. The number of viable cells after treatment was compared to solvent and untreated control cells and used to determine the percent of control growth as (Abtreated/Abcontrol)×100, where Ab represents the mean absorbance (n=3). […] D. Heo et al. […] (+)-camptothecin (CPT) and doxorubicin hydrochloride (Dox) were used for comparison with the compounds according to this invention.

[2] = tested on: human renal clear cell carcinoma; test: In vitro anticancer assay (MTT), RCC 768-O; settings: RCC 768-O cells, 48 hrs, mean ± spread, read-out: Anti-proliferative evaluation IC50, RCC 768-O
Procedure: as §1

[3] = tested on: esophageal carcinoma (CE81T); test: In vitro anticancer assay (MTT), CE81T; settings: CE81T cells, 48 hrs, mean ± spread, read-out: Anti-proliferative evaluation IC50, CE81T
Procedure: as §1

[4] = tested on: oral squamous cell carcinoma (SAS); test: In vitro anticancer assay (MTT), SAS; settings: SAS cells, 48 hrs, mean ± spread, read-out: Anti-proliferative evaluation IC50, SAS
Procedure: as §1

[5] = tested on: human stomach adenocarcinoma (AGS); test: In vitro anticancer assay (MTT), AGS; settings: AGS cells, 48 hrs, mean ± spread, read-out: Anti-proliferative evaluation IC50, AGS
Procedure: as §1

[6] = tested on: human cervical epithelioid carcinoma (HeLa); test: In vitro anticancer assay (MTT), HeLa; settings: HeLa cells, 48 hrs, mean ± spread, read-out: Anti-proliferative evaluation IC50, HeLa
Procedure: as §1

[7] = Homo sapiens, SK-HEP1, SKHep1 cells

Row | SMILES | IC50 ([1]; SKHep1 cells) | IC50 [2] | IC50 [3] | IC50 [4] | IC50 [5] | IC50 [6] | IC50 [1, 7] | IC50 ([2]; Homo sapiens) | IC50 ([5]; Homo sapiens) | IC50 ([6]; Homo sapiens)
1 | CNCC(=O)N1CCN(c2nc3ccccc3c3c2-c2ccc(OC)cc2C3=O)CC1 [Compound 5kk] | 4.8 ± 2.1 µM | 6.2 ± 1.9 µM | 2.3 ± 1.3 µM | 7.4 ± 0.9 µM | 7.2 ± 1.5 µM | 2 ± 0.6 µM | – | – | – | –
2 | COc1ccc2c(c1)C(=O)c1c-2c(N2CCN(C(=O)CNCCO)CC2)nc2ccccc12 [Compound 5nn] | 6.6 ± 0.9 µM | 6.7 ± 0.5 µM | 9.2 ± 0.8 µM | 11.3 ± 0.3 µM | 6.5 ± 0.6 µM | 4.7 ± 2.3 µM | – | – | – | –
3 | CC[C@@]1(O)C(=O)OCc2c1cc1n(c2=O)Cc2cc3ccccc3nc2-1 [CPT, (+)-camptothecin, reference compound] | – | – | 2.8 ± 1.5 µM | 6 ± 2.7 µM | – | – | 0.2 ± 0.1 µM | 2.8 ± 0.7 µM | > 30 µM | 0.3 ± 0.1 µM
4 | CON=C1c2cc(OC)ccc2-c2c(N3CCN(C(=O)CCNCCN(C)C)CC3)nc3ccccc3c21 [Compound 6o] | 11.6 ± 7.3 µM | > 30 µM | 4.8 ± 1.6 µM | 19.1 ± 2.2 µM | > 30 µM | 11.5 ± 1.3 µM | – | – | – | –
5 | COc1cc2c(cc1OC)-c1c(N3CCNCC3)nc3ccccc3c1C2=O [Compound 5dd, 8,9-Dimethoxy-6-(piperazin-1-yl)-11H-indeno[1,2-c]quinolin-11-one] | – | – | 8.3 ± 0.3 µM | 11.7 ± 1.6 µM | – | – | 6.6 ± 3.2 µM | 7.1 ± 0.6 µM | 7.4 ± 2.1 µM | 7 ± 1.2 µM
6 | COc1ccc2c(c1)C(=O)c1c-2c(N2CCN(C(=O)CN(C)C)CC2)nc2ccccc12 [Compound 5ll] | 19.2 ± 5.4 µM | 14.1 ± 3.4 µM | > 30 µM | > 30 µM | 8.7 ± 1.2 µM | 11.8 ± 2.8 µM | – | – | – | –
7 | COc1ccc2c(c1)C(=O)c1c-2c(N2CCN(C(=O)CNCCN(C)C)CC2)nc2ccccc12 [Compound 5oo] | 16 ± 3.8 µM | 9.4 ± 0.6 µM | > 30 µM | 19.5 ± 3.2 µM | 14.1 ± 2.3 µM | 8.2 ± 2.2 µM | – | – | – | –
8 | COc1ccc2c(c1)C(=O)c1c-2c(N2CCN(C(=O)CCNCCN(C)C)CC2)nc2ccccc12 [Compound 5bbb, 6-{4-{3-[2-(Dimethylamino)ethylamino]propanoyl}piperazin-1-yl}-9-methoxy-11H-indeno[1,2-c]quinolin-11-one] | – | – | 7.4 ± 2 µM | 8.8 ± 1 µM | – | – | 5.1 ± 1.5 µM | 7 ± 1.3 µM | 4.9 ± 1 µM | 4.8 ± 1.5 µM
9 | COc1ccc2c(c1)C(=NOCCCN(C)C)c1c-2c(N2CCNCC2)nc2ccccc12 [Compound 6s, 9-Methoxy-6-(piperazin-1-yl)-11H-indeno[1,2-c]quinolin-11-one O-3-(dimethylamino)propyl oxime] | – | – | > 30 µM | 4.9 ± 0.6 µM | – | – | 3 ± 2.8 µM | 4.9 ± 0.8 µM | 6.8 ± 1.8 µM | 0.6 ± 0.3 µM
10 | COc1ccc2c(c1)C(=O)c1c-2c(N2CCN(C(=O)CNCCCN(C)C)CC2)nc2ccccc12 [Compound 5pp] | 13.1 ± 2.7 µM | 10 ± 2.1 µM | > 30 µM | > 30 µM | 5.6 ± 2.2 µM | 10.8 ± 3 µM | – | – | – | –
11 | O=C1c2ccccc2-c2c(N3CCNCC3)nc3ccccc3c21 [Compound 5aa] | 1.7 ± 1.1 µM | 7.7 ± 0.4 µM | 11.1 ± 8.5 µM | 10.7 ± 0.9 µM | 6.5 ± 2.6 µM | 1.1 ± 0.6 µM | – | – | – | –
12 | COc1ccc2c(c1)C(=O)c1c-2c(N2CCN(C(=O)CCNCCO)CC2)nc2ccccc12 [Compound 5aaa] | 4.5 ± 1.1 µM | 2 ± 1.4 µM | 7.1 ± 0.9 µM | 9.1 ± 1.6 µM | 3.7 ± 0.5 µM | 3.1 ± 1.2 µM | – | – | – | –
13 | CNCCC(=O)N1CCN(c2nc3ccccc3c3c2-c2ccc(OC)cc2C3=O)CC1 [Compound 5xx] | 9.1 ± 4.8 µM | 6 ± 1.4 µM | 3.8 ± 0.6 µM | 6.9 ± 0.7 µM | 8.1 ± 1.1 µM | 1.9 ± 0.8 µM | – | – | – | –
14 | COc1ccc2c(c1)C(=O)c1c-2c(N2CCN(C(=O)CCN(C)C)CC2)nc2ccccc12 [Compound 5yy] | 16.6 ± 2 µM | 11.5 ± 1.8 µM | > 30 µM | 17 ± 2.9 µM | 8.1 ± 1.1 µM | 11.7 ± 1.7 µM | – | – | – | –
15 | COc1ccc2c(c1)C(=O)c1c-2c(NCCCN(C)C)nc2ccccc12 [Compound 5i, 6-[3-(Dimethylamino)propylamino]-9-methoxy-11H-indeno[1,2-c]quinolin-11-one] | – | – | 7.1 ± 0.3 µM | 5.5 ± 0.5 µM | – | – | 11.5 ± 5.4 µM | > 30 µM | 14.3 ± 0.5 µM | 2 ± 0.4 µM
16 | COc1ccc2c(c1)C(=NOCCN1CCOCC1)c1c-2c(N2CCNCC2)nc2ccccc12 [Compound 6w] | 1 ± 0.4 µM | 4.1 ± 1.9 µM | > 30 µM | 6.9 ± 1.3 µM | 5.8 ± 1.9 µM | 0.8 ± 0.2 µM | – | – | – | –

Row | SMILES | IC50 ([1]; SKHep1 cells) | IC50 [2] | IC50 [3] | IC50 [4] | IC50 [5] | IC50 [6] | IC50 [1, 7] | IC50 ([2]; Homo sapiens) | IC50 ([5]; Homo sapiens) | IC50 ([6]; Homo sapiens)
17 | COc1ccc2c(c1)C(=O)c1c-2c(N2CCN(CC(O)CN(C)C)CC2)nc2ccccc12 (stereo not drawn) [Compound 5mmm] | 2.2 ± 0.8 µM | 6.8 ± 0.1 µM | 4.8 ± 4 µM | 6.9 ± 0.5 µM | 7.9 ± 3.8 µM | 2.5 ± 0.7 µM | – | – | – | –
18 | COc1ccc2c(c1)C(=O)c1c-2c(N2CCN(C(=O)CCN3CCOCC3)CC2)nc2ccccc12 [Compound 5hhh] | 15 ± 5.9 µM | > 30 µM | > 30 µM | > 30 µM | 12 ± 1.3 µM | 14.3 ± 4.4 µM | – | – | – | –
19 | COc1ccc2c(c1)C(=O)c1c-2c(N2CCN(C(=O)CCNCCN3CCNCC3)CC2)nc2ccccc12 [Compound 5iii] | 11.5 ± 5.6 µM | > 30 µM | > 30 µM | > 30 µM | 13.4 ± 1.3 µM | > 30 µM | – | – | – | –
20 | COc1ccc2c(c1)C(=NOCC1CO1)c1c-2c(N2CCN(CC3CO3)CC2)nc2ccccc12 (stereo not drawn) [Compound 6y] | 1 ± 0.5 µM | 8.8 ± 2.2 µM | 2 ± 1.2 µM | 6.2 ± 0.9 µM | 8.8 ± 4.1 µM | 0.5 ± 0.2 µM | – | – | – | –
21 | COc1ccc2c(c1)C(=O)c1c-2c(N2CCN(C(=O)CCCN(C)C)CC2)nc2ccccc12 [Compound 5jjj] | 5.5 ± 0.8 µM | 5.3 ± 0.5 µM | > 30 µM | 8 ± 0.8 µM | 5.4 ± 0.6 µM | 4.9 ± 1.7 µM | – | – | – | –
22 | COc1ccc2c(c1)C(=O)c1c-2c(N2CCC(N)CC2)nc2ccccc12 [Compound 5w] | 2.6 ± 0.9 µM | 5.3 ± 1 µM | 1.4 ± 0.7 µM | 8.4 ± 2.6 µM | 7.4 ± 0.6 µM | 1.1 ± 0.3 µM | – | – | – | –
23 | COc1ccc2c(c1)C(=O)c1c-2c(N2CCN(C(=O)CCN3CCNCC3)CC2)nc2ccccc12 [Compound 5ggg] | 4.9 ± 1.1 µM | 1.5 ± 1.3 µM | 7.2 ± 1.5 µM | 7.7 ± 0.9 µM | 5.5 ± 0.5 µM | 4.7 ± 1.4 µM | – | – | – | –
24 | COc1ccc2c(c1)C(=NOCCN1CCCCC1)c1c-2c(N2CCNCC2)nc2ccccc12 [Compound 6v, 9-Methoxy-6-(piperazin-1-yl)-11H-indeno[1,2-c]quinolin-11-one O-2-(piperidin-1-yl)ethyl oxime] | – | – | > 30 µM | 5.8 ± 0.5 µM | – | – | 1.6 ± 0.5 µM | 4.5 ± 1.4 µM | 7.1 ± 0.8 µM | 0.8 ± 0.3 µM
25 | COc1ccc2c(c1)C(=O)c1c-2c(N2CCN(C(=O)CCNCCN)CC2)nc2ccccc12 [Compound 5zz] | 19 ± 3.2 µM | > 30 µM | > 30 µM | > 30 µM | 9 ± 2 µM | 11.4 ± 0.4 µM | – | – | – | –
26 | COc1ccc2c(c1)C(=O)c1c-2c(N2CCNC(C)C2)nc2ccccc12 (stereo not drawn) [Compound 5y] | 2.9 ± 0.5 µM | 13.6 ± 5.5 µM | 3.3 ± 2.2 µM | 13.4 ± 2.6 µM | 7.9 ± 1.2 µM | 3.4 ± 1 µM | – | – | – | –
27 | COc1ccc2c(c1)C(=NOCCN1CCCC1)c1c-2c(N2CCNCC2)nc2ccccc12 [Compound 6u, 9-Methoxy-6-(piperazin-1-yl)-11H-indeno[1,2-c]quinolin-11-one O-2-(pyrrolidin-1-yl)ethyl oxime] | – | – | 2.9 ± 1.7 µM | 2.4 ± 1.3 µM | – | – | 0.7 ± 0.3 µM | 2.6 ± 0.5 µM | 4.8 ± 1.3 µM | 0.6 ± 0.2 µM
28 | COc1ccc2c(c1)C(=NOCCCN)c1c-2c(N2CCNCC2)nc2ccccc12 [Compound 6t, 9-Methoxy-6-(piperazin-1-yl)-11H-indeno[1,2-c]quinolin-11-one O-3-aminopropyl oxime] | – | – | 6.5 ± 0.6 µM | 6.3 ± 0.9 µM | – | – | 3 ± 2.2 µM | 4.4 ± 1.4 µM | 5.9 ± 1.2 µM | 0.9 ± 0.4 µM
29 | COc1ccc2c(c1OC)C(=O)c1c-2c(N2CCNCC2)nc2ccc(Cl)cc12 [Compound 5ff, 2-Chloro-9,10-dimethoxy-6-(piperazin-1-yl)-11H-indeno[1,2-c]quinolin-11-one] | – | – | > 30 µM | 11 ± 3.2 µM | – | – | 4.7 ± 2.2 µM | 6.9 ± 0.3 µM | 9.5 ± 2.7 µM | 4.6 ± 0.7 µM
30 | ON=C1c2ccccc2-c2c(N3CCNCC3)nc3ccccc3c21 [Compound 6i] | 4.6 ± 1.1 µM | 6.3 ± 1.3 µM | 3.5 ± 2.7 µM | 7.3 ± 1.5 µM | 7.6 ± 1.4 µM | 5.1 ± 0.6 µM | – | – | – | –
31 | CN(C)CCCNc1nc2ccccc2c2c1-c1ccccc1C2=O [Compound 5b] | 4.6 ± 1.5 µM | 10 ± 0.8 µM | > 30 µM | 6.9 ± 0.5 µM | 9.8 ± 4 µM | 4 ± 0.9 µM | – | – | – | –
